Literature values as cited in PMC11913096, “MBX 2109, A Once-Weekly Parathyroid Hormone Replacement Therapy Prodrug: Phase 1, First-In-Human, Randomized Trial” (The Journal of Clinical Endocrinology and Metabolism, 2024).
Where no end group is shown, it is not given here.

How the values were obtained:
patients with hypoPT = conditions: once-daily, placebo 5%
Protocol: (§1) Because PTH deficiency is the etiology for chronic hypoPT, hormone replacement therapy with PTH would be the ideal treatment ([1], [2]). However, the short half-lives (t1/2) of unmodified PTH(1-34) and PTH(1-84) peptides necessitate frequent administration to normalize serum calcium levels ([2]). For example, twice-daily subcutaneous (SC) injection of teriparatide, a recombinant PTH(1-34) analogue with a short half-life (∼1 hour) ([2]), was more efficacious than once-daily administration in normalizing serum calcium and reducing hypercalciuria in patients with hypoPT ([9]). Continuous SC (pump ...

[1] = Protocol: as §1

Substance	Patients achieving composite primary end point (normalizing serum calcium and eliminating active vitamin D and calcium supplements) (patients with hypoPT)	Half-life [1]
palopegteriparatide (SVSEIQLMHNLGKHLNSMERVEWLRKKLQDVHNF; also: methoxy-PEG carrier prodrug, attachment not given here; UniProt P01270 32-65, looked up, fragment) [prodrug of PTH(1-34) conjugated to a methoxypolyethylene glycol (PEG) carrier]	79%	–
teriparatide	–	~1 h
